Measurements as given in patent US20230398178A1, “METHODS AND COMPOSITIONS FOR TREATING OR PREVENTING A VAGINAL INFECTION OF GARDNERELLA VAGINALIS” (Massachusetts Institute of Technology, priority 2022, published 2023).
Entries after “also recorded” stand apart in the source; their conditions may differ.

Key:
[1] = tested on: Gardnerella vaginalis ATCC 14018 mature biofilms; test: Disruption of established G. vaginalis biofilms (CFU of biofilm and supernatant fractions); format: cell-based; conditions: for viable cell counts in supernatant / biofilm fractions, in words: pre-established 24 h biofilms, 24 h treatment
Experimental: Gardnerella vaginalis 14018 ATCC strain was obtained from ATCC. Salivary MUC5B mucin was isolated and purified as described previously. Galactose and D-Fucose were obtained from Sigma-Aldrich. AnaeroPacks were purchased from VWR. Prior to the experiment, MUC5B mucin was weighed out and solubilized to desired concentration on a shaker overnight. To establish mature biofilms, an overnight preculture of Gardnerella vaginalis ATCC 14018 was diluted 1:20 into fresh NYC III medium with 1% glucose and incubated at 37° C. in the anaerobic chamber for 24 h. Before adding fresh solutions, a set of triplicate wells was sacrificed to quantify cell counts in supernatant and biofilm fraction at the 24 h timepoint. The spent supernatant was gently drained from the rest of the wells and fresh medium or mucin/monosaccharide solutions in medium were added on top of the bacterial biomass. Plate was gently rocked (100 rpm) for 24 h in the anaerobic atmosphere (generated with AnaeroPack, Mitsubishi in the airtight container) in the 37° C. incubator. After 24 h, the supernatant was removed into a separate plate and the biofilms were washed twice with […], sterile phosphate-buffer saline (PBS) and washes were combined with the supernatant (=supernatant fraction). Another […], of PBS was added to the biofilms, each well was vigorously scraped with P20 tip for 20 s and scraped biomass pipetted up and down to homogenize the solution (=biofilm fraction). Both supernatant and biofilm solutions were serially diluted, plated on BHI-agar (BHI=brain-heart infusion, 1.5% agar) and incubated in the anaerobic chamber 37° C. incubator. Colonies were counted after ˜48 h.

[2] = tested on: G. vaginalis 14018; test: Biofilm formation of G. vaginalis 14018 in polystyrene plates (CFU assay); format: cell-based, Gardnerella vaginalis; conditions: for effect on (proportional) biofilm formation, in words: G. vaginalis 14018, 24 hour biofilms, NYCIII media; for reduction of biofilm formation: G. vaginalis 14018, NYCIII media, anaerobic, 24 h, 0.2 wt %
[3] = tested on: G. vaginalis 14018; test: Total growth of G. vaginalis 14018 (CFU assay); format: cell-based, Gardnerella vaginalis; conditions: for effect on total growth, in words: G. vaginalis 14018, NYCIII media (contains 1% glucose), soluble additive; for effect on growth in media without glucose, in words: G. vaginalis 14018, NYCIII media without glucose (data not shown); for suppression of growth: G. vaginalis 14018, glucose-rich NYCIII media, 0.2 wt % soluble monosaccharide
[4] = tested on: Gardnerella vaginalis 49145; test: Biofilm formation of G. vaginalis 49145 (CFU assay); format: cell-based
[5] = tested on: Gardnerella vaginalis mature biofilms; test: Minimum biofilm eradication assay with metronidazole; format: cell-based; conditions: 0.2 wt % monosaccharide with metronidazole concentration series, established biofilms, 24 h
Experimental: Mature biofilms of Gardnerella vaginalis were established as described above. On a separate plate serial dilution of metronidazole alone or in combination with 0.2 wt % Gal/D-Fuc were prepared in NYC III 1% Glc medium. Negative controls (no metronidazole) were also included on the plate. After spent supernatant was drained from mature biofilms, 100 μL, of metronidazole/metronidazole-monosaccharide or negative controls solutions were added to the biofilms and plate was rocked (100 rpm) for 24 h in the anaerobic atmosphere (generated with AnaeroPack, Mitsubishi in the airtight container) in the 37° C. incubator. After 24 h incubation, the CFUs of supernatant and biofilm fractions were quantified as described in the biofilm disruption experiment.

[6] = tested on: Gardnerella vaginalis 49145; test: Total growth of G. vaginalis 49145 (CFU assay); format: cell-based; conditions: G. vaginalis 49145, glucose-rich media

## O=C[C@H](O)[C@@H](O)[C@@H](O)[C@H](O)CO [galactose, D-galactose]
[1]
  viable cell counts in supernatant / biofilm fractions, in words: reduction in viable cells in both biofilm and supernatant fractions
[2]
  effect on (proportional) biofilm formation, in words: inhibit biofilm formation; also recorded: significantly reduced proportional biofilm formation
  reduction of biofilm formation: 85%
[3]
  effect on total growth, in words: limited G. vaginalis growth in glucose-rich media; also recorded: reduced the overall growth
  effect on growth in media without glucose, in words: did not diminish
  suppression of growth: 90%
[4]
  effect on biofilm formation, in words: reduction of biofilm formation
[5]
  effect in combination with metronidazole on biofilm eradication, in words: potentiate the action of antibiotic metronidazole
[5]; listed as Gal
  effect in combination with metronidazole on biofilm eradication, in words: synergistic effect

## CC(=O)N[C@H]1C(O)O[C@H](CO)[C@H](O)[C@@H]1O (stereo partly drawn) [GalNAc, N-acetyl D-galactosamine, reference compound]
[2]
  effect on (proportional) biofilm formation, in words: only galactose was able to reduce proportional biofilm formation
[3]
  effect on total growth, in words: have no effect

## C[C@@H](O)[C@H](O)[C@H](O)[C@@H](O)C=O [D-fucose, 6-deoxy-D-galactose]
[6]
  effect on total growth, in words: suppressed the growth
[1]
  viable cell counts in supernatant / biofilm fractions, in words: reduction in viable cells in both biofilm and supernatant fractions
[2]
  effect on (proportional) biofilm formation, in words: inhibit biofilm formation
  reduction of biofilm formation: 72%
[2]; listed as D-Fuc
  effect on (proportional) biofilm formation, in words: significantly reduced proportional biofilm formation
[3]
  effect on total growth, in words: limited G. vaginalis growth in glucose-rich media; also recorded: reduced the overall growth
  effect on growth in media without glucose, in words: did not diminish
  suppression of growth: 75%
[4]
  effect on biofilm formation, in words: reduction of biofilm formation
[5]; listed as D-Fuc
  effect in combination with metronidazole on biofilm eradication, in words: synergistic effect
[5]; listed as D-Fucose
  effect in combination with metronidazole on biofilm eradication, in words: potentiate the action of antibiotic metronidazole

## CC(=O)N[C@H]1C(O)O[C@H](CO)[C@@H](O)[C@@H]1O (stereo partly drawn) [GlcNAc, N-acetyl D-glucosamine, reference compound]
[2]
  effect on (proportional) biofilm formation, in words: only galactose was able to reduce proportional biofilm formation
[3]
  effect on total growth, in words: have no effect

## MUC5B: mucin glycoprotein, predominant in cervicovaginal fluid, purified from pooled human saliva and reconstituted into gels
[1]
  viable cell counts in supernatant / biofilm fractions, in words: increase in the cell counts in the supernatant
[1]; pre-established biofilms
  disruption of established biofilms, in words: disrupt established biofilms
[2]
  effect on (proportional) biofilm formation, in words: limited its biofilm formation, toxin production, and killing of endocervical cells; also recorded: reduces relative biofilm formation
  reduction of biofilm formation: 76%
[2]; listed as mucin
  effect on (proportional) biofilm formation, in words: inhibit biofilm formation
[3]
  effect on total growth, in words: did not limit the growth of the bacteria; also recorded: did not have any detrimental impact
[4]
  effect on biofilm formation, in words: reduction of biofilm formation

## C[C@H](O)[C@@H](O)[C@@H](O)[C@H](O)C=O [L-Fuc, L-fucose, reference compound]
[2]
  effect on (proportional) biofilm formation, in words: only galactose was able to reduce proportional biofilm formation

## CC(=O)N[C@H]1[C@H]([C@H](O)[C@H](O)CO)OC(O)(C(=O)O)C[C@@H]1O (stereo partly drawn) [NeuNAc, N-acetyl D-neuraminic acid, reference compound]
[2]
  effect on (proportional) biofilm formation, in words: only galactose was able to reduce proportional biofilm formation
